Reference: paper PMC2861366 (Biochemistry, 2010)
Entries after “also recorded” stand apart in the source; their conditions may differ.

What was measured:
[1] = tested on: χ subunit of DNA polymerase III holoenzyme; experiment: ITC binding to χ subunit; parameters: species or system E. coli; settings: 25°C; for K, observed association equilibrium constant: buffer C (10 mM cacodylate, pH 7.0, 25% glycerol), 20 mM NaCl
PriA helicase = experiment: ITC binding to PriA helicase; parameters: species or system E. coli; settings: 25°C; for binding detected by ITC (in words): 0.2 M NaCl, same protein and peptide concentrations as with WP9
[2] = tested on: χ subunit of DNA polymerase III holoenzyme; settings: SSB prebound to ssDNA, low salt (5mM NaCl); cited from earlier work
[3] = buffer C, pH 7.0, 200 mM NaCl, WP9: averaged from two titrations
[4] = buffer T (10 mM Tris, pH 7.5, 10% glycerol), 20 mM NaCl
[5] = buffer C (10 mM cacodylate, pH 7.0, 25% glycerol), 20 mM NaCl

MDFDDDIPF [P9]
K, observed association equilibrium constant [1]: (1.6±0.4)×10^6 M^−1
K, observed association equilibrium constant (PriA helicase; [3]): (1.8±0.6)×10^5 M^−1
K, observed association equilibrium constant (PriA helicase; [4]): (2.0±0.3)×10^6 M^−1

PSNEPPMDFDDDIPF [P15]
K, observed association equilibrium constant [1]: (1.5±0.2)×10^6 M^−1
K, observed association equilibrium constant (PriA helicase; [5]): (2.7±0.2)×10^6 M^−1
K, observed association equilibrium constant (PriA helicase; [3]): (3.6±0.2)×10^5 M^−1
K, observed association equilibrium constant (PriA helicase; [4]): (1.6±0.4)×10^6 M^−1

SSB: E. coli single stranded DNA binding protein, homotetramer
binding detected by ITC (in words) ([1]; 0.02 M NaCl): too weak to determine its binding parameters; also recorded: Weak (see text)
affinity of χ for SSB in the presence of ssDNA [2]: (7.4±1.0)×10^6 M^−1

WDFMDDPFID [WP9r]
binding detected by ITC (in words) ([1]; 0.2 M NaCl, buffer C): No binding can be detected
binding detected by ITC (in words) (PriA helicase; buffer C): No binding can be detected

WMDFDDDISF [WP9-113]
binding detected by ITC (in words) ([1]; 0.2 M NaCl, buffer C): No binding can be detected
binding detected by ITC (in words) (PriA helicase; buffer C): No binding can be detected

WP9: modified P9 peptide containing a Trp residue on the N terminal side (WMDFDDDIPF)
K, observed association equilibrium constant [1]: (1.2±0.1)×10^6 M^−1
K, observed association equilibrium constant (PriA helicase; [5]): (1.6±0.2)×10^6 M^−1
K, observed association equilibrium constant (PriA helicase; [3]): (2.3±0.3)×10^5 M^−1
